Measured values from PMC7180948, “New Insights into 4-Anilinoquinazolines as Inhibitors of Cardiac Troponin I–Interacting Kinase (TNNi3K)” (Molecules, 2020).

Columns and labels:
Test in all cases: biochemical
Design in all cases: KINOMEscan competition binding panel (Eurofins DiscoverX), single concentration, percent inhibition
Conditions in all cases: read-out: 15 at 1 µM % inhibition
CDK2 = CDK2 (Homo sapiens, UniProt P24941)
Outline: (§1)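 Compounds were submitted at 1 µM to a KINOMEscan assay covering more than 400 human kinases. The screen served to define the selectivity profile.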

STK16 = STK16 (Homo sapiens, UniProt O75716)
Outline: as §1

ULK2 = ULK2 (Homo sapiens, UniProt Q8IYT8)
Outline: as §1

PKAC-beta = target: T1, PKAC-beta (Homo sapiens, UniProt P22694)
T1 construct: gene PRKACB
Outline: as §1

DRAK2 = target: T2, DRAK2 (Homo sapiens, UniProt O94768)
T2 construct: gene STK17B
T2 sequence (O94768 whole entry): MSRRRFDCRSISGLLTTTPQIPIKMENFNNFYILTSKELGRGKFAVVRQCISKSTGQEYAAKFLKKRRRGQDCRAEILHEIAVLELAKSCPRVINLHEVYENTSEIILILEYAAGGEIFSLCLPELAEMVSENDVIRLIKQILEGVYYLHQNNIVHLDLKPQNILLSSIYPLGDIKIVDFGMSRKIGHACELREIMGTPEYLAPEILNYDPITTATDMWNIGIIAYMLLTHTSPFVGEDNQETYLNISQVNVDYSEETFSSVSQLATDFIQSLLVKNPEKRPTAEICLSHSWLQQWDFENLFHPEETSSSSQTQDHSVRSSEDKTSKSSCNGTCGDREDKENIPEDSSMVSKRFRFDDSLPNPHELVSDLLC
Outline: as §1

HIPK2 = HIPK2 (Homo sapiens, UniProt Q9H2X6)
Outline: as §1

NEK3 = NEK3 (Homo sapiens, UniProt P51956)
NEK3, sequence (P51956 whole entry): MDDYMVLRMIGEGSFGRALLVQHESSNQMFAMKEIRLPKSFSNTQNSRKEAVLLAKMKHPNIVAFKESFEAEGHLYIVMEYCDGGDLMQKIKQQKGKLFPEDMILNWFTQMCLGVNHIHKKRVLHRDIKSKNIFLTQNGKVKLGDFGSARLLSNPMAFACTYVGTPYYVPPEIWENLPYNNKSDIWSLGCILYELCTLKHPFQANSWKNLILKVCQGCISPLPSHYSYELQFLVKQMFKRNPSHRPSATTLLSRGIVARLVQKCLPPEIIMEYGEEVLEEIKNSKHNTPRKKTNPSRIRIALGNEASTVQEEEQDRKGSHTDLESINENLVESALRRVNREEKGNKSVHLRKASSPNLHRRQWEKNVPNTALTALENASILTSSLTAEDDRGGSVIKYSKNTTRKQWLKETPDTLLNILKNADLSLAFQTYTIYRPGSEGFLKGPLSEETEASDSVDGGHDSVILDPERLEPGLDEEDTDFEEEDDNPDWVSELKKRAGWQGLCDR
Outline: as §1

CDC2L1 = target: T3, CDC2L1 (Homo sapiens, UniProt P21127)
T3 construct: gene CDK11B
Outline: as §1

DCAMKL3 = target: T4, DCAMKL3 (Homo sapiens, UniProt Q9C098)
T4 construct: gene DCLK3
Outline: as §1

MTOR = MTOR (Homo sapiens, UniProt P42345)
Outline: as §1

EGFR(L747-T751del,Sins) = EGFR(L747-T751del,Sins) (Homo sapiens, UniProt P00533, DEL747-750/T751S)
EGFR(L747-T751del,Sins), sequence (P00533 with tags, fused parts or gaps DEL747-750/T751S): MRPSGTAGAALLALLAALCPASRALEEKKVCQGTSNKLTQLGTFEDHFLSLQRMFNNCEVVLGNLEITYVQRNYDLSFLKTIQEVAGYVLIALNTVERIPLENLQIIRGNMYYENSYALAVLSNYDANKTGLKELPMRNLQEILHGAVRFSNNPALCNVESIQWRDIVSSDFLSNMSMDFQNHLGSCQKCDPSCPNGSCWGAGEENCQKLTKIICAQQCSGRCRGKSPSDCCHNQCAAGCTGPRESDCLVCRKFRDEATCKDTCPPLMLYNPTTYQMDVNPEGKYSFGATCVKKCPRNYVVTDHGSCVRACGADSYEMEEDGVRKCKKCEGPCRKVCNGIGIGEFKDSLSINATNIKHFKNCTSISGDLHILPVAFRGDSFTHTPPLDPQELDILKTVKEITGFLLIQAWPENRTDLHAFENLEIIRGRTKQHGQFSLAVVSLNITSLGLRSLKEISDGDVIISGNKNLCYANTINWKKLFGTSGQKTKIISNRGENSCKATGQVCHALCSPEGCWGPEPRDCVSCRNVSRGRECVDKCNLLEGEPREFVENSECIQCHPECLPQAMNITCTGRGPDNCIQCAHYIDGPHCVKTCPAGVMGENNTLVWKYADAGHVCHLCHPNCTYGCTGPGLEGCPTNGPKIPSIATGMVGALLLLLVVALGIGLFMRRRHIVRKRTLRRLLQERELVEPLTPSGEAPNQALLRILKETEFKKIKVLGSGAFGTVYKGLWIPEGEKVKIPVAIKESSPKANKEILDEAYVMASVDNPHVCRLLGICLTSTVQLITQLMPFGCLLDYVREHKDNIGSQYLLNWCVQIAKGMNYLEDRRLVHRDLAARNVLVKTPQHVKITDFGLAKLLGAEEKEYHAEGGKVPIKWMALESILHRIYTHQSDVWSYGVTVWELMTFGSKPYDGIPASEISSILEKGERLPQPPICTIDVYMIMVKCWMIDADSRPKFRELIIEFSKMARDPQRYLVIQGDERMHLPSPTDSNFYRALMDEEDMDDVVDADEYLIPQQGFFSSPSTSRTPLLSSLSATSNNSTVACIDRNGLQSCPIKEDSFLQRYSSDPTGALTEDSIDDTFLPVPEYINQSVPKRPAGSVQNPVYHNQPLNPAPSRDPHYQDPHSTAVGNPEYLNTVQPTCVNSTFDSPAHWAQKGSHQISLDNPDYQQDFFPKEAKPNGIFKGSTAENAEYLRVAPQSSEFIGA
Outline: as §1

CDK4 = CDK4 (Homo sapiens, UniProt P11802)
CDK4, sequence (P11802 whole entry): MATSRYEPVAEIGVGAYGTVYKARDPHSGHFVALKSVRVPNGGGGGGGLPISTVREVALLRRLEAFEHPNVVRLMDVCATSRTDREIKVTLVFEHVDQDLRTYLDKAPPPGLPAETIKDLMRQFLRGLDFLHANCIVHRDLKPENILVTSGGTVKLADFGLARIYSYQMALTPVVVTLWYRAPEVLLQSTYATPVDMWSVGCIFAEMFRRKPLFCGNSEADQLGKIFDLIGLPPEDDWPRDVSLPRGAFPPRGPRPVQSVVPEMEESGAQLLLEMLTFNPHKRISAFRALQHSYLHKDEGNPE
Outline: as §1

MLK3 = target: T5, MLK3 (Homo sapiens, UniProt Q16584)
T5 construct: gene MAP3K11
T5 sequence (Q16584 whole entry): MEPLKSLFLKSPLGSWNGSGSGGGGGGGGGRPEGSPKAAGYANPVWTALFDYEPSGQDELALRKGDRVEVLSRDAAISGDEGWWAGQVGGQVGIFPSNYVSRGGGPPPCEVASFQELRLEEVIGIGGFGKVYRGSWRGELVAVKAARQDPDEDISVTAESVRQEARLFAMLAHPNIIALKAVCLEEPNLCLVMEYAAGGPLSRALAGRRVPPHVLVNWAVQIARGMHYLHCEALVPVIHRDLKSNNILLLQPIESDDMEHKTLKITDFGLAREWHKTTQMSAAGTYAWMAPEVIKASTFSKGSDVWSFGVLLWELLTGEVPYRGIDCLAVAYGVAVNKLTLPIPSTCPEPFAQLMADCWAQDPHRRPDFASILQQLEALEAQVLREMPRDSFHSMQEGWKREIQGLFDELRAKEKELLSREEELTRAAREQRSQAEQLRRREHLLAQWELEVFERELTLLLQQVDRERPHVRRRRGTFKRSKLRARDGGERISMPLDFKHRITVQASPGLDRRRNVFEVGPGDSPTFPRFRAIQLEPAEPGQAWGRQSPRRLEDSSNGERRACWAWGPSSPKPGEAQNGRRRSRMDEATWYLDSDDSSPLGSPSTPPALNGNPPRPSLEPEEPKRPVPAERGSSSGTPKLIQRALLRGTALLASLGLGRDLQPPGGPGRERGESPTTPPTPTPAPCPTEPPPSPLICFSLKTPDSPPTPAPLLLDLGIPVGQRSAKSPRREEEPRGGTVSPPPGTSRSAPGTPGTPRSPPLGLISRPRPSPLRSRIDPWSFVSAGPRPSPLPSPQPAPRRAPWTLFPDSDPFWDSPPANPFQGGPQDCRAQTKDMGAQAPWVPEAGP
Outline: as §1

PLK1 = PLK1 (Homo sapiens, UniProt P53350)
PLK1, sequence (P53350 whole entry): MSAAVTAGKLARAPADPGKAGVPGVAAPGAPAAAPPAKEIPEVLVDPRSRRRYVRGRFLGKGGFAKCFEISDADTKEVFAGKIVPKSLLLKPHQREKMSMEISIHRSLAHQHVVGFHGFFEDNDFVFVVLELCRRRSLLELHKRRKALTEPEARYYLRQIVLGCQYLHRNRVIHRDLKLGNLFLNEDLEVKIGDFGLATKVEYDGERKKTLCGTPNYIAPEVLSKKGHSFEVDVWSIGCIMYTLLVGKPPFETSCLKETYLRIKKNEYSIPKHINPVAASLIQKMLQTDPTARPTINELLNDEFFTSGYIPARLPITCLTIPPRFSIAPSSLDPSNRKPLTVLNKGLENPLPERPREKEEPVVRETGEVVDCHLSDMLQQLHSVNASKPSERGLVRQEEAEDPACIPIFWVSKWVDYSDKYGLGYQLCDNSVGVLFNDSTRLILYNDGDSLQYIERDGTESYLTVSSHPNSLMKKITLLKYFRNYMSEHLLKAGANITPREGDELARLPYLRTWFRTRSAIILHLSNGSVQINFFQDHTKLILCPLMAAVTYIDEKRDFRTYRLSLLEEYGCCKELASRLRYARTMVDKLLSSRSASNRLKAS
Outline: as §1

CDKL2 = CDKL2 (Homo sapiens, UniProt Q92772)
Outline: as §1

MAP3K1 = MAP3K1 (Homo sapiens, UniProt Q13233)
Outline: as §1

GSK3A = GSK3A (Homo sapiens, UniProt P49840)
GSK3A, sequence (P49840 whole entry): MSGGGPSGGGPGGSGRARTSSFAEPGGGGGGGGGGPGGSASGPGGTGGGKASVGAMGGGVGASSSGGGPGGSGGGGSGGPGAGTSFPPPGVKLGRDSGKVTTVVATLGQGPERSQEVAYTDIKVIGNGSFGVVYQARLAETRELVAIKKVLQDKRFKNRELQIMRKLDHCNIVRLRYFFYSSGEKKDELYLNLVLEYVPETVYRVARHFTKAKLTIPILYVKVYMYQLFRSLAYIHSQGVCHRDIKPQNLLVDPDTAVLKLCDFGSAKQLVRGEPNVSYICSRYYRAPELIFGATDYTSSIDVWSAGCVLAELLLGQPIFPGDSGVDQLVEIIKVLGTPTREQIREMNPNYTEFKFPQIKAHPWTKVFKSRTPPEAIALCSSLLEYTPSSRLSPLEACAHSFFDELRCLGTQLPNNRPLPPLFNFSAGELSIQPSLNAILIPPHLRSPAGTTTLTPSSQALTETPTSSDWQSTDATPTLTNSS
Outline: as §1

PRP4 = target: T6, PRP4 (Homo sapiens, UniProt Q13523)
T6 construct: gene PRPF4B
Outline: as §1

CDK11 = target: T7, CDK11 (Homo sapiens, UniProt Q9BWU1)
T7 construct: gene CDK19
T7 sequence (Q9BWU1 whole entry): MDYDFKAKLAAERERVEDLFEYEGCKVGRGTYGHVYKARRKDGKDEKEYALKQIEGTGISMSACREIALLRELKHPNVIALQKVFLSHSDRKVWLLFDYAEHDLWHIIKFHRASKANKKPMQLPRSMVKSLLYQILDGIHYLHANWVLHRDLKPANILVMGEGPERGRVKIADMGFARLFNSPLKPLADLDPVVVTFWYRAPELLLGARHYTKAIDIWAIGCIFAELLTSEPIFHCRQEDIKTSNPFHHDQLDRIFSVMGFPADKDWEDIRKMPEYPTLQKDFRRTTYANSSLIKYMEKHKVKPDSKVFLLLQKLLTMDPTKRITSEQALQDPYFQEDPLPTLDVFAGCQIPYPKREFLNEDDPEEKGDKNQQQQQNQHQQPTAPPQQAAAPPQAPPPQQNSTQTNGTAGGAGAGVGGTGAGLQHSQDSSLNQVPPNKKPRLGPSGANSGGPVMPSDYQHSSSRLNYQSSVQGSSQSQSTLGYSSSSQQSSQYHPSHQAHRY
Outline: as §1

CSNK1D = CSNK1D (Homo sapiens, UniProt P48730)
Outline: as §1

FLT3(K663Q) = FLT3(K663Q) (Homo sapiens, UniProt P36888, K663Q)
Outline: as §1

ERBB3 = ERBB3 (Homo sapiens, UniProt P21860)
Outline: as §1

ACVRL1 = ACVRL1 (Homo sapiens, UniProt P37023)
Outline: as §1

CDC2L5 = target: T8, CDC2L5 (Homo sapiens, UniProt Q14004)
T8 construct: gene CDK13
Outline: as §1

inhibition at 1 µM (CDK2): 0%
inhibition at 1 µM (STK16): 2%
inhibition at 1 µM (ULK2): 9%
inhibition at 1 µM (PKAC-beta): 0%
inhibition at 1 µM (DRAK2): 0%
inhibition at 1 µM (HIPK2): 9%
inhibition at 1 µM (NEK3): 0%
inhibition at 1 µM (CDC2L1): 7%
inhibition at 1 µM (DCAMKL3): 6%
inhibition at 1 µM (MTOR): 0%
inhibition at 1 µM (EGFR(L747-T751del,Sins)): 0%
inhibition at 1 µM (CDK4): 21%
inhibition at 1 µM (MLK3): 0%
inhibition at 1 µM (PLK1): 0%
inhibition at 1 µM (CDKL2): 4%
inhibition at 1 µM (MAP3K1): 27%
inhibition at 1 µM (GSK3A): 0%
inhibition at 1 µM (PRP4): 52%
inhibition at 1 µM (CDK11): 13%
inhibition at 1 µM (CSNK1D): 0%
inhibition at 1 µM (FLT3(K663Q)): 10%
inhibition at 1 µM (ERBB3): 16%
inhibition at 1 µM (ACVRL1): 0%
inhibition at 1 µM (CDC2L5): 23%
Compound: CNS(=O)(=O)c1ccc(N(C)C)c(Nc2nc(C)nc3cc(OC)c(OC)cc23)c1 [compound 15, 3-((6,7-dimethoxy-2-methylquinazolin-4-yl)amino)-4-(dimethylamino)-N-methylbenzenesulfonamide]
